Here are results for three molecules from PMC3445516 (PLoS ONE, 2012).

Like-named read-outs stand apart in the source and are kept apart here.

Experiment in all cases: Ambit kinase profiling, competition binding
One assay deals with T1, SLK (Homo sapiens, UniProt Q9H2G2).
T1 construct: purchased Ambit Biosciences (KINOMEscan)
The protocol:
(§1) Also included in the kinase profile are four isoforms of PKC (δ, ε, η, θ) and eight isoforms of CAMKs (CAMKIα, δ, γ; CAMKIIα, β, δ, γ; CAMK4).
(§2) The global kinase profiling experiment was performed by Ambit Biosciences.

For the next assay, the target named is T2, BTK (Homo sapiens, UniProt Q06187).
T2 construct: purchased Ambit Biosciences (KINOMEscan)
T2 sequence (Q06187 whole entry): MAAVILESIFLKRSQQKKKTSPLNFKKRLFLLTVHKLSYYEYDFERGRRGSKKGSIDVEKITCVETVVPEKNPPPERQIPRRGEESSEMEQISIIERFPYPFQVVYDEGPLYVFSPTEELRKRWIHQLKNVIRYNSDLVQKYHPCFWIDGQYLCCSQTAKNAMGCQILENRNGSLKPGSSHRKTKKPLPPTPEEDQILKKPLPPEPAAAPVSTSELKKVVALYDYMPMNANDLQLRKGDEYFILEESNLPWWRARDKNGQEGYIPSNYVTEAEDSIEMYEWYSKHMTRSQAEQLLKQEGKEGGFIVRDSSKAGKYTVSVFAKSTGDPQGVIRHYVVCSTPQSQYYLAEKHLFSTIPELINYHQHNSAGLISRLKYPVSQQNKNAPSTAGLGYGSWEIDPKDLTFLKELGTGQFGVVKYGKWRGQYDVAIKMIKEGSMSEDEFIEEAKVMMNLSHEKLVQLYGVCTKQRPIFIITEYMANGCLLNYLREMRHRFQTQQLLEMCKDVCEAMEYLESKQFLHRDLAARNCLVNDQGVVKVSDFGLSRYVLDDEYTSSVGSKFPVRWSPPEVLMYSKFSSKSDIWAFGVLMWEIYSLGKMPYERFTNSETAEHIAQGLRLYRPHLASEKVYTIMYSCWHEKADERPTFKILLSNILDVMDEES
As to conditions: for % Competition: 10 µM. The protocol: as §1, §2

In another assay the target is T3, EPHA6 (Homo sapiens, UniProt Q9UF33).
T3 construct: purchased Ambit Biosciences (KINOMEscan)
T3 sequence (Q9UF33 23-1036): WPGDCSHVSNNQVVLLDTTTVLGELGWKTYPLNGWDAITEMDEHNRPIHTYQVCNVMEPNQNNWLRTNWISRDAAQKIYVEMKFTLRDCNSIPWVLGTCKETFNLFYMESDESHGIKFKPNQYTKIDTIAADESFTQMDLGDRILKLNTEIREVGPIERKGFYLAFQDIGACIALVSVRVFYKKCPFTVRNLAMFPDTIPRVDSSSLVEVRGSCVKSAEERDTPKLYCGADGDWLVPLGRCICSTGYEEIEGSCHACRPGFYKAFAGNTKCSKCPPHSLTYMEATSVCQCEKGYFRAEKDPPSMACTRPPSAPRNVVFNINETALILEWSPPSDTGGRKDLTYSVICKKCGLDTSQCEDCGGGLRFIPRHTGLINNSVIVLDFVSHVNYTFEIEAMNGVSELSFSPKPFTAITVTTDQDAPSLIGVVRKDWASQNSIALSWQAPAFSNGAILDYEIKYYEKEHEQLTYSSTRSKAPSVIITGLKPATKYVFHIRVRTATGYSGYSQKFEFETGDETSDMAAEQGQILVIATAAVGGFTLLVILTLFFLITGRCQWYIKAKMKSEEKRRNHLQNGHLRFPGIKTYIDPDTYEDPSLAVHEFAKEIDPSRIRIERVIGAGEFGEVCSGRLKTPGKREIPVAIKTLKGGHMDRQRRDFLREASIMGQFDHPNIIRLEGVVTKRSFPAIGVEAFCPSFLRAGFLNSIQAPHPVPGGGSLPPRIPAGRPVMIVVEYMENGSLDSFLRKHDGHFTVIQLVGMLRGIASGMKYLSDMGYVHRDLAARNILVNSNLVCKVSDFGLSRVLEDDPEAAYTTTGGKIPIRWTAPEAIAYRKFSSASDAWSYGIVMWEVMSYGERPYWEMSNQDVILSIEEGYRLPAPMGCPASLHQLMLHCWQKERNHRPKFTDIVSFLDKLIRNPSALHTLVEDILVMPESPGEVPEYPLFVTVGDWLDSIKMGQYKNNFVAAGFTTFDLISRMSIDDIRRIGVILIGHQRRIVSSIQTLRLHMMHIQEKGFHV
The protocol: as §1, §2

Another assay concerns the target T4, PCTK3 (Homo sapiens, UniProt Q07002).
T4 construct: purchased Ambit Biosciences (KINOMEscan)
The protocol: as §1, §2

A further assay has as its target T5, RIPK2 (Homo sapiens, UniProt O43353).
T5 construct: purchased Ambit Biosciences (KINOMEscan)
The protocol: as §1, §2

In a further assay the target is T6, MUSK (Homo sapiens, UniProt O15146).
T6 construct: purchased Ambit Biosciences (KINOMEscan)
T6 sequence (O15146 24-869): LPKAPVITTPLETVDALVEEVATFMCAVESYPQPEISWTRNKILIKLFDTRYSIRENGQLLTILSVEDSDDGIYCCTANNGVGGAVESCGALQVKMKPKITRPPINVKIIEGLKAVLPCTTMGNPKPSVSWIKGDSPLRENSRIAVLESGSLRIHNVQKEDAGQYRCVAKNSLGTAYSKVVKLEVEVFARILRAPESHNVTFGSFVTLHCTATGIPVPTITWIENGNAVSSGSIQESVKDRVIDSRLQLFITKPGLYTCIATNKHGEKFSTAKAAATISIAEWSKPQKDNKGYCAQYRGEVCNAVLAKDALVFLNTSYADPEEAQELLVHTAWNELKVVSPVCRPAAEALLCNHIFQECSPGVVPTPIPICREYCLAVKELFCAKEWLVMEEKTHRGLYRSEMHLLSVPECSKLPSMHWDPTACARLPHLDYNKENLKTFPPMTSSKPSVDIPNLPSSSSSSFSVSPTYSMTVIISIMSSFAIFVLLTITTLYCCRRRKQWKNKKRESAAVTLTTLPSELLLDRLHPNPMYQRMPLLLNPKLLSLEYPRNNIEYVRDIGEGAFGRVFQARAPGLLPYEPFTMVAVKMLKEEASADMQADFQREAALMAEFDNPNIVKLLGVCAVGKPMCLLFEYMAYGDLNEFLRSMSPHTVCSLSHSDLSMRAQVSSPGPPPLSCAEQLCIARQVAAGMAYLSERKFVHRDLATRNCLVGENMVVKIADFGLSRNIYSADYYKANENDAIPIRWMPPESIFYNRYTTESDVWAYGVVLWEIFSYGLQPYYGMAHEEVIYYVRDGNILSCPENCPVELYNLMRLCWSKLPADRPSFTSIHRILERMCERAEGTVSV
The protocol:
as §1, §2

For another assay, the target named is T7, CSNK1G2 (Homo sapiens, UniProt P78368).
T7 construct: purchased Ambit Biosciences (KINOMEscan)
T7 sequence (P78368 whole entry): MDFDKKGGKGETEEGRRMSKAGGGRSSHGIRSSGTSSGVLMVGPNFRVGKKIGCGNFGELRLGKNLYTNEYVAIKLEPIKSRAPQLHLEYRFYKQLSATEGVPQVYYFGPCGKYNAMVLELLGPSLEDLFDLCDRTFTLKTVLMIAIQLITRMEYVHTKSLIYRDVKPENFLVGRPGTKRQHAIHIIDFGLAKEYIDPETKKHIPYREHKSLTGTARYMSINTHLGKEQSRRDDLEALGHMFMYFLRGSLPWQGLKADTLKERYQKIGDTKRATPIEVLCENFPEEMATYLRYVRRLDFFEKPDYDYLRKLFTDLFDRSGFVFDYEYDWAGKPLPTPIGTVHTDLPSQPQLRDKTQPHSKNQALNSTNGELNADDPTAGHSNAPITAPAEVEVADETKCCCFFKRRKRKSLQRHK
The following applies: for % Competition: 10 µM. The protocol:
as §1, §2

T4 sequence (Q07002 whole entry): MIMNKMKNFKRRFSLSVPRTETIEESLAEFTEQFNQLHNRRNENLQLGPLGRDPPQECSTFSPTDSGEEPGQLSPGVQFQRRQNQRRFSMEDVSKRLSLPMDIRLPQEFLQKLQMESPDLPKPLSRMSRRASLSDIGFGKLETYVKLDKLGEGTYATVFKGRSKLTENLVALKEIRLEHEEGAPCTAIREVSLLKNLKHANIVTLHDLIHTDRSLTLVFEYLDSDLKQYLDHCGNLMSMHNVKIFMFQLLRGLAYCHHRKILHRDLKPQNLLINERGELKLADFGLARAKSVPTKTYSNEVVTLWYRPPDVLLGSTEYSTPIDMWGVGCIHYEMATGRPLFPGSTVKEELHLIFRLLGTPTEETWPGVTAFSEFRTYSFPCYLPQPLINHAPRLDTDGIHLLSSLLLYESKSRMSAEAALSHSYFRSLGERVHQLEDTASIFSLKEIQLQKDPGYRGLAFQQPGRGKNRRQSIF
T5 sequence (O43353 whole entry): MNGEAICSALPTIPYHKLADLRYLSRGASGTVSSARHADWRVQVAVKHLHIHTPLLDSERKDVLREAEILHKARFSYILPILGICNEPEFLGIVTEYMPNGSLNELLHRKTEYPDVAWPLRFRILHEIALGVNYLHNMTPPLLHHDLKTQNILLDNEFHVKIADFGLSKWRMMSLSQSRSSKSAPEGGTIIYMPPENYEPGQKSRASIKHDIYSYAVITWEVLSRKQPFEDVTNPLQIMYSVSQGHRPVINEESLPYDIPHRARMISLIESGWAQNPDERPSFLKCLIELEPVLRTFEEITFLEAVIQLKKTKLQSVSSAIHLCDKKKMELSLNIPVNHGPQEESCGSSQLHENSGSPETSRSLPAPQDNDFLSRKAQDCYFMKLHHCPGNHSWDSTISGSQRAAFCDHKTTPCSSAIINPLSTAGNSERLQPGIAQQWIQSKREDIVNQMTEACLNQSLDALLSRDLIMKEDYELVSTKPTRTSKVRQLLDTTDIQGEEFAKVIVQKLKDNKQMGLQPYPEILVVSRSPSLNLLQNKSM
T1 sequence (Q9H2G2 whole entry): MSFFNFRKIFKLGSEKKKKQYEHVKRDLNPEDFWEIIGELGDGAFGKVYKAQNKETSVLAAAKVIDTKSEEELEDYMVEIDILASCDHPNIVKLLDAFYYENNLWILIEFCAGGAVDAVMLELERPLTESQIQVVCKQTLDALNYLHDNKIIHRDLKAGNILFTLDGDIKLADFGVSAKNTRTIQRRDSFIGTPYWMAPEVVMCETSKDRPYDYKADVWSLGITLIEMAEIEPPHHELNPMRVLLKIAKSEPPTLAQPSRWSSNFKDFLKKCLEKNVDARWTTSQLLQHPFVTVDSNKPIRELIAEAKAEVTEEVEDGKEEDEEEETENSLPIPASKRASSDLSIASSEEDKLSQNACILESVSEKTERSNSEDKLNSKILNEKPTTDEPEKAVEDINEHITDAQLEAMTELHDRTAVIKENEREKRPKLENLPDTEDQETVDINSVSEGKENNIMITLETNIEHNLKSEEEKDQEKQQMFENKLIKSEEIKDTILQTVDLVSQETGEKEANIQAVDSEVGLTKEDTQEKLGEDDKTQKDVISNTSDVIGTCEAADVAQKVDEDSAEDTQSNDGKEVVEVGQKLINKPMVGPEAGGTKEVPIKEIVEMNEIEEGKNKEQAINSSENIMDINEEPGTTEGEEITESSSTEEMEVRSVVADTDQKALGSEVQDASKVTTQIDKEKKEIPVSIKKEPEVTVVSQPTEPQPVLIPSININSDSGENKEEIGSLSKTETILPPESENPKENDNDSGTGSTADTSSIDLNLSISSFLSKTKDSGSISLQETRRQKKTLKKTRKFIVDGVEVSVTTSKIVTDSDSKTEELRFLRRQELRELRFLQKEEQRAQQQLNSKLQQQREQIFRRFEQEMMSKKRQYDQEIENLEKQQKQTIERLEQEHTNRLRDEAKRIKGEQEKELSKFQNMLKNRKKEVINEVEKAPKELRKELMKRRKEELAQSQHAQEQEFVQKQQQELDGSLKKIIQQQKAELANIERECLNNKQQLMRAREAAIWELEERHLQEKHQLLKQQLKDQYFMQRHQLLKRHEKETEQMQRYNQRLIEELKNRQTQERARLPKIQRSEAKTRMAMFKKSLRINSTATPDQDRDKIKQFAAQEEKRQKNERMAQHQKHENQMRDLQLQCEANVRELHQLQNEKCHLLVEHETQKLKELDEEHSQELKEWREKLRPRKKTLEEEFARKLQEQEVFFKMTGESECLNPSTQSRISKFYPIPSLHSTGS

On to `Fc1ccc(-c2c(-c3ccncc3)[nH]c3nccnc23)cc1` [Compound 122], for which the inhibition at 10 µM worked out at 80% on SLK (SLK, 10 µM, read-out: % Competition); 93% on EPHA6 (EPHA6, 10 µM, read-out: % Competition); 77% at PCTK3 (PCTK3, 10 µM, read-out: % Competition); 97% at RIPK2 (RIPK2, 10 µM, read-out: % Competition); 94% on MUSK (MUSK, 10 µM, read-out: % Competition). The “% Competition” value on BTK worked out at 91%; on CSNK1G2, 82%.

Turning to `Fc1ccc(-c2c(-c3ccncc3)[nH]c3nccnc23)cc1` [RO1155697-000-005], the inhibition at 10 µM came out at 80% at SLK (SLK, compound concentration 10 uM, read-out: Percent Competition); 93% at EPHA6 (EPHA6, compound concentration 10 uM, read-out: Percent Competition); 77% at PCTK3 (PCTK3, compound concentration 10 uM, read-out: Percent Competition); 97% at RIPK2 (RIPK2, compound concentration 10 uM, read-out: Percent Competition); 94% on MUSK (MUSK, compound concentration 10 uM, read-out: Percent Competition). In addition, the entries for the “Percent Competition” value on BTK (compound concentration 10 uM) and on CSNK1G2 (compound concentration 10 uM) were 91% and 82%, respectively.

`CC(O)CNc1cc(-c2[nH]c3cccnc3c2-c2ccc(F)cc2)ccn1` (stereo not drawn) [Compound 140]: the inhibition at 10 µM is below 50% at SLK (read-out: % Competition); below 50% on EPHA6 (read-out: % Competition); below 50% at PCTK3 (read-out: % Competition); 94% at RIPK2 (read-out: % Competition); below 50% at MUSK (read-out: % Competition). Further, the “% Competition” value on BTK is given as below 50%; on CSNK1G2 it was 89%.
